pIC50: −log10 of the molar value.
Legend:
TLR8 = molecular target: T1, TLR8 (Homo sapiens, UniProt Q9NR97); assay: HEK/293 TLR8 Cell Assay; assay type: cell-based; conditions: HEK cells, R848 agonist 30 uM final concentration, Steady-Glo readout; read-out: TLR8 potency
T1 construct: expressed in transfected cells; host or cells: HEK/293 reporter cells (NF-kB luciferase)
T1 sequence (Q9NR97 27-1041): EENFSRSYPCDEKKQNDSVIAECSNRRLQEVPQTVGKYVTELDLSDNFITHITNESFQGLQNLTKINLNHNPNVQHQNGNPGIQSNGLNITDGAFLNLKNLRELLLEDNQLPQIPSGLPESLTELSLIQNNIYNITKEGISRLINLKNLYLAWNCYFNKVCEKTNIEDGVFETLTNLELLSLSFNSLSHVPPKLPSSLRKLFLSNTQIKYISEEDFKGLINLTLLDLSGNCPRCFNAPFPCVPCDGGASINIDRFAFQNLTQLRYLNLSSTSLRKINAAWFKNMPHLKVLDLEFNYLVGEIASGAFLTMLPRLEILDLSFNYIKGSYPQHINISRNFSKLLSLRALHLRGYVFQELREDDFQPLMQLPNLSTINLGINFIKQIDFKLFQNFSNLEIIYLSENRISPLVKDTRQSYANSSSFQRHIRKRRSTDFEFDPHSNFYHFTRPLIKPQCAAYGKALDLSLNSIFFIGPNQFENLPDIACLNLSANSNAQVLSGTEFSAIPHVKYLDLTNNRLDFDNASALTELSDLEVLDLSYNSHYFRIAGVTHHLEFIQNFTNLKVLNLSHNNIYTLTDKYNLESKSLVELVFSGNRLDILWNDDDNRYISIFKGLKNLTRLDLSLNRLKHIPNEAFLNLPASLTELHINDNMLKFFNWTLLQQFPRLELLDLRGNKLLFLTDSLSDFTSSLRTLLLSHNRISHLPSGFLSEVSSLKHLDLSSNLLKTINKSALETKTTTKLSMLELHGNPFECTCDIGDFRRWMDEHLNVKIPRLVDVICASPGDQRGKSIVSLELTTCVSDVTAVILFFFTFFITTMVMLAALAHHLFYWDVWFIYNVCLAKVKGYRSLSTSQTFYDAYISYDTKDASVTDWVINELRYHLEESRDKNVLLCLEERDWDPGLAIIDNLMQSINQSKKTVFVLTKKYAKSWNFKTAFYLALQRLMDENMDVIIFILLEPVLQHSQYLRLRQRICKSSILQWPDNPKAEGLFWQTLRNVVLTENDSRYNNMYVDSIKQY

TLR7 = molecular target: T2, TLR7 (Homo sapiens, UniProt Q9NYK1); assay: HEK/293 TLR7 Cell Assay; assay type: cell-based; conditions: TLR7/NFKb HEK cells, R848 agonist 10 uM final concentration, Steady-Glo readout; read-out: TLR7 potency
T2 construct: expressed in transfected cells; host or cells: HEK/293 cells carrying TLR7 and an NF-kB luciferase reporter
T2 sequence (Q9NYK1 27-1049): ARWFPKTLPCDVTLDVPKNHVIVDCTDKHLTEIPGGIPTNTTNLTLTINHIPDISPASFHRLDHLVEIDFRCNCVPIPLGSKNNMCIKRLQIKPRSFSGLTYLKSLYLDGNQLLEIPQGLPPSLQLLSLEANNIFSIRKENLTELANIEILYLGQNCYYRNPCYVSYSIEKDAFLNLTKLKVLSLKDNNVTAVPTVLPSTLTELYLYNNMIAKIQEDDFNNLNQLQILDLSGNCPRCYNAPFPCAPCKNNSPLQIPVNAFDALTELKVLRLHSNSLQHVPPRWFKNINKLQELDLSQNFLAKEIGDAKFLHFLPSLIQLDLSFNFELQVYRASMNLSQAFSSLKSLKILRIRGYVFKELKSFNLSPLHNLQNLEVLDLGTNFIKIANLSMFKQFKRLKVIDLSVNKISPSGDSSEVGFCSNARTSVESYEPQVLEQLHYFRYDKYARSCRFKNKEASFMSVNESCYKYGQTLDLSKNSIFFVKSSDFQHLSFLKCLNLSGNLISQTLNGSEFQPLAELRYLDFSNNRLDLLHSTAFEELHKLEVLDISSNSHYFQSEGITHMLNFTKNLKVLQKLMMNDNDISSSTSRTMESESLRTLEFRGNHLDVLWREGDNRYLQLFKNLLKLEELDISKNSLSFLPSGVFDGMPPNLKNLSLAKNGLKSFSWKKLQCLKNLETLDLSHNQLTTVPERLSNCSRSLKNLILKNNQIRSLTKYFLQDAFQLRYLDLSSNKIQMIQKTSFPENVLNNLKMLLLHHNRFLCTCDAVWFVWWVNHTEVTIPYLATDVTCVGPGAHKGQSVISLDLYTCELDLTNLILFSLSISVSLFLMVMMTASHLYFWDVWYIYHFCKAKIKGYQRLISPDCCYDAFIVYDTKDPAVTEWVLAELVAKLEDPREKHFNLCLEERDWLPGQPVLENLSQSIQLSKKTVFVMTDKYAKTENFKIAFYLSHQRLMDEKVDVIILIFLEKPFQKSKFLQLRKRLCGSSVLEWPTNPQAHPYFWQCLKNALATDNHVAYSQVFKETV
In short: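 TLR7/NF-κB reporter HEK293 cells, 5000/well, cultured 24 h, then preincubated 30 min with compound before R848 agonist (10 uM final). After 5 h stimulation, Steady-Glo luciferase luminescence read.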

pIC50 (TLR8)	pIC50 (TLR7)	SMILES
> 7.12	> 7.12	C[C@H]1C[C@@H](NCC(C)(C)O)CN(c2ccc(C(F)(F)F)c3ncccc23)C1 [Example 17, 2-Methyl-1-[(3R,5S)-5-methyl-1-(8-trifluoromethyl-quinolin-5-yl)-piperidin-3-ylamino]-propan-2-ol]
> 7.12	6.82 to 7.12	C[C@H]1C[C@@H](NCCNS(N)(=O)=O)CN(c2ccc(C(F)(F)F)c3ncccc23)C1 [Example 19]
> 7.12	> 7.12	C[C@H]1C[C@@H](NCCC(N)=O)CN(c2ccc(C(F)(F)F)c3nccnc23)C1 [Example 22, 3-[(3R,5S)-5-Methyl-1-(8-trifluoromethyl-quinoxalin-5-yl)-piperidin-3-ylamino]-propionamide]
> 7.12	6.82 to 7.12	CCS(=O)(=O)NCCN[C@@H]1C[C@H](C)CN(c2ccc(C(F)(F)F)c3nccnc23)C1 [Example 24]
> 7.12	> 7.12	CC(=O)NCCN[C@@H]1C[C@H](C)CN(c2ccc(C(F)(F)F)c3nccnc23)C1 [Example 25, N-{2-[(3R,5S)-5-Methyl-1-(8-trifluoromethyl-quinoxalin-5-yl)-piperidin-3-ylamino]-ethyl}-acetamide formic acid]
> 7.12	> 7.12	C[C@H]1C[C@@H](NCC2(O)CCOCC2)CN(c2ccc(C(F)(F)F)c3nccnc23)C1 [Example 26, 4-{[(3R,5S)-5-Methyl-1-(8-trifluoromethyl-quinoxalin-5-yl)-piperidin-3-ylamino]-methyl}-tetrahydro-pyran-4-ol]
> 7.12	> 7.12	C[C@H]1C[C@@H](NCCN2CCNC2=O)CN(c2ccc(C(F)(F)F)c3ncccc23)C1 [Example 27, 1-{2-[(3R,5S)-5-Methyl-1-(8-trifluoromethyl-quinolin-5-yl)-piperidin-3-ylamino]-ethyl}-imidazolidin-2-one]
> 7.12	> 7.12	C[C@H]1C[C@@H](NCC2CCC(=O)N2)CN(c2ccc(C(F)(F)F)c3nccnc23)C1 (stereo partly drawn) [Example 28, 5-{[(3R,5S)-5-Methyl-1-(8-trifluoromethyl-quinoxalin-5-yl)-piperidin-3-ylamino]-methyl}-pyrrolidin-2-one]
> 7.12	> 7.12	C[C@H]1C[C@@H](NCCC2CCNC2=O)CN(c2ccc(C(F)(F)F)c3ncccc23)C1 (stereo partly drawn) [Example 30, 3-{2-[(3R,5S)-5-Methyl-1-(8-trifluoromethyl-quinolin-5-yl)-piperidin-3-ylamino]-ethyl}-pyrrolidin-2-one]
> 7.12	> 7.12	CNS(=O)(=O)CCCN[C@@H]1C[C@H](C)CN(c2ccc(C(F)(F)F)c3ncccc23)C1 [Example 32, 3-[(3R,5S)-5-Methyl-1-(8-trifluoromethyl-quinolin-5-yl)-piperidin-3-ylamino]-propane-1-sulfonic acid methylamide]
> 7.12	> 7.12	C[C@H]1C[C@@H](NCCC(C)(C)O)CN(c2ccc(C(F)(F)F)c3ncccc23)C1 [Example 33, 2-Methyl-4-[(3R,5S)-5-methyl-1-(8-trifluoromethyl-quinolin-5-yl)-piperidin-3-ylamino]-butan-2-ol]

Continued, compound first:

SMILES	pIC50 (TLR8)	pIC50 (TLR7)
C[C@H]1C[C@@H](NC2CS(=O)(=O)C2)CN(c2ccc(C#N)c3nccnc23)C1 [Example 12, 8-[(3R,5S)-3-(1,1-Dioxo-1lambda6-thietan-3-ylamino)-5-methyl-piperidin-1-yl]-quinoxaline-5-carbonitrile]	6.82 to 7.12	< 6.82
C[C@H]1C[C@@H](NC2CS(=O)(=O)C2)CN(c2ccc(C(F)(F)F)c3ncccc23)C1 [Example 13, (1,1-Dioxo-1lambda6-thietan-3-yl)-[(3R,5S)-5-methyl-1-(8-trifluoromethyl-quinolin-5-yl)-piperidin-3-yl]-amine]	> 7.12	> 7.12
C[C@H]1C[C@@H](NCC2(O)CCOCC2)CN(c2ccc(C#N)c3nccnc23)C1 [Example 14, 8-{(3R,5S)-3-[(4-Hydroxy-tetrahydro-pyran-4-ylmethyl)-amino]-5-methyl-piperidin-1-yl}-quinoxaline-5-carbonitrile]	> 7.12	> 7.12
C[C@H]1C[C@@H](NCC(C)(F)C(=O)O)CN(c2ccc(C#N)c3nccnc23)C1 (stereo partly drawn) [Example 15, 3-[(3R,5S)-1-(8-Cyano-quinoxalin-5-yl)-5-methyl-piperidin-3-ylamino]-2-fluoro-2-methyl-propionic acid]	> 7.12	> 7.12
C[C@H]1C[C@@H](NCC(C)(C)O)CN(c2ccc(C#N)c3nccnc23)C1 [Example 16, 8-[(3R,5S)-3-(2-Hydroxy-2-methyl-propylamino)-5-methyl-piperidin-1-yl]-quinoxaline-5-carbonitrile formic acid]	> 7.12	> 7.12
C[C@H]1C[C@@H](NCC(=O)N2CCOCC2)CN(c2ccc(C(F)(F)F)c3ncccc23)C1 [Example 18, 2-{[(3R,5S)-5-methyl-1-[8-(trifluoromethyl)quinolin-5-yl]piperidin-3-yl]amino}-1-(morpholin-4-yl)ethan-1-one]	> 7.12	> 7.12
C[C@H]1C[C@@H](NCCNS(C)(=O)=O)CN(c2ccc(C(F)(F)F)c3ncccc23)C1 [Example 20, N-(2-{[(3R,5S)-5-methyl-1-[8-(trifluoromethyl)quinolin-5-yl]piperidin-3-yl]amino}ethyl)methanesulfonamide]	> 7.12	> 7.12
C[C@H]1C[C@@H](NCCCS(C)(=O)=O)CN(c2ccc(C#N)c3nccnc23)C1 [Example 21, 8-[(3R,5S)-3-[(3-methanesulfonylpropyl)amino]-5-methylpiperidin-1-yl]quinoxaline-5-carbonitrile methanesulfonamide]	> 7.12	> 7.12
C[C@H]1C[C@@H](NCCNS(C)(=O)=O)CN(c2ccc(C(F)(F)F)c3nccnc23)C1 [Example 23, N-{2-[(3R,5S)-5-Methyl-1-(8-trifluoromethyl-quinoxalin-5-yl)-piperidin-3-ylamino]-ethyl}-methanesulfonamide]	> 7.12	> 7.12
C[C@H]1C[C@@H](NCCN2CCOC2=O)CN(c2ccc(C(F)(F)F)c3ncccc23)C1 [Example 29, 3-{2-[(3R,5S)-5-Methyl-1-(8-trifluoromethyl-quinolin-5-yl)-piperidin-3-ylamino]-ethyl}-oxazolidin-2-one]	> 7.12	> 7.12
C[C@H]1C[C@@H](NCCN2CCOC2=O)CN(c2ccc(C(F)(F)F)c3nccnc23)C1 [Example 31, 3-{2-[(3R,5S)-5-Methyl-1-(8-trifluoromethyl-quinoxalin-5-yl)-piperidin-3-ylamino]-ethyl}-oxazolidin-2-one formic acid]	> 7.12	> 7.12

Reference: US20210300940A1 (Merck Patent GmbH, priority 2018, published 2021)
